Source: article PMC10253161, “New 5-Hydroxycoumarin-Based Tyrosyl-DNA Phosphodiesterase I Inhibitors Sensitize Tumor Cell Line to Topotecan” (International Journal of Molecular Sciences, 2023)
Like-named read-outs stand apart in the source and are kept apart here.

Key:
[1] = tested on: HEK293A cells; assay: Effect of compounds on topotecan cytotoxicity, MTT test, HEK293A; format: cell-based, human; conditions: 10 µM compound, result in words
Description: (§1) The cytotoxicity of the compounds to HeLa (human cervical cancer) and HEK293A (human embryonic kidney) cell lines was determined using standard colorimetric MTT-test. Cells were seeded in 96-well plates (5000 cells per well) and cultured in DMEM medium (Invitrogen, Carlsbad, CA, USA) supplemented with 10% fetal bovine serum (FBS) (Invitrogen), penicillin (100 units/mL), and streptomycin (100 μg/mL) at 37 °C and 5% CO2 in a humid atmosphere. Control wells contained 1% DMSO. At 30–50% confluence, the tested compounds were added to the medium. To determine the cytotoxicity of Tdp1 inhibitors, the cells were allowed to attach for 24 h and were treated with compounds with concentrations ranging from 1 to 100 μM for 72 h at 37 °C. All measurements were repeated three times.
(§2) To study the effect of the compounds on the cytotoxicity of topotecan, an aqueous solution of topotecan was used at concentrations from 0.2 to 2 μM for HeLa cells and from 0.05 to 0.5 μM for HEK293A cells against the background of 10 μM of the compounds. Cells treated with compounds alone without topotecan were used as controls.

[2] = Cytotoxicity of compounds, MTT test, HEK293A; format: cell-based; conditions: human, HEK293A cells, compound alone, read-out: CC50 HEK 293A
Description: as §1

[3] = target: T1, TDP1 (Homo sapiens, UniProt Q9NUW8); assay: Real-time fluorescence detection of TDP1 activity (FAM/BHQ1 oligonucleotide biosensor); format: biochemical
T1 construct: made in house
Text: To determine the inhibitory properties of the new compounds against TDP1 we used a previously designed real-time oligonucleotide biosensor with 5(6)-carboxyfluorescein (FAM) at the 5′ end and fluorophore quencher BHQ1 (Black Hole Quencher-1) at the 3′-end.
The biosensor, 16-mer DNA oligonucleotide (5′-[FAM] AAC GTC AGGGTC TTC C [BHQ]-3′) was synthesized in the Laboratory of Nucleic Acid Chemistry at the Institute of Chemical Biology and Fundamental Medicine (Novosibirsk, Russia). Real-time fluorescence detection of TDP1 enzyme activity was carried out as described. The recombinant TDP1 was purified as described, using plasmid pET 16B-TDP1, kindly provided by Dr. K.W. Caldecott (University of Sussex, Brighton, UK). To the reaction mixture (200 μL) containing 50 nM oligonucleotide in buffer (50 mM Tris-HCl, pH 8.0, 50 mM NaCl, and 7 mM β-mercaptoethanol), varied concentrations of the tested compounds and purified TDP1 in a final concentration of 1.5 nM were added.
Fluorescence intensity was measured (Ex485/Em520 nm) using POLARstar OPTIMA fluorimeter (BMG LABTECH, GmbH, Ortenberg, Germany) every 1 min for 7 min. The half maximal inhibitory concentrations (IC50) were determined using a six-point concentration response curve and calculated using MARS Data Analysis 2.0 (BMG LABTECH). At least three independent experiments were carried out to obtain the IC50 values.

[4] = Cytotoxicity of compounds, MTT test, HeLa; format: cell-based; conditions: human, HeLa cells, compound alone
Description: as §1

[5] = Effect of compounds on topotecan cytotoxicity, MTT test, HEK293A; format: cell-based, human; conditions: human
Description: as §1, §2

[6] = tested on: HeLa cells; assay: Effect of compounds on topotecan cytotoxicity, MTT test, HeLa; format: cell-based, human
Description: as §1, §2

[7] = target: T1, TDP1; parameters: method as in PMID 27658793, PMID 31878088; conditions: previously found 7-hydroxycoumarin derivatives; cited from earlier work
[8] = Table 1, recombinant TDP1 1.5 nM, 50 nM oligonucleotide, read-out: TDP1 inhibitory activities (IC50)
[9] = Table 2, TDP1 IC50, partly rounded, read-out: IC50

T1 sequence (Q9NUW8 whole entry): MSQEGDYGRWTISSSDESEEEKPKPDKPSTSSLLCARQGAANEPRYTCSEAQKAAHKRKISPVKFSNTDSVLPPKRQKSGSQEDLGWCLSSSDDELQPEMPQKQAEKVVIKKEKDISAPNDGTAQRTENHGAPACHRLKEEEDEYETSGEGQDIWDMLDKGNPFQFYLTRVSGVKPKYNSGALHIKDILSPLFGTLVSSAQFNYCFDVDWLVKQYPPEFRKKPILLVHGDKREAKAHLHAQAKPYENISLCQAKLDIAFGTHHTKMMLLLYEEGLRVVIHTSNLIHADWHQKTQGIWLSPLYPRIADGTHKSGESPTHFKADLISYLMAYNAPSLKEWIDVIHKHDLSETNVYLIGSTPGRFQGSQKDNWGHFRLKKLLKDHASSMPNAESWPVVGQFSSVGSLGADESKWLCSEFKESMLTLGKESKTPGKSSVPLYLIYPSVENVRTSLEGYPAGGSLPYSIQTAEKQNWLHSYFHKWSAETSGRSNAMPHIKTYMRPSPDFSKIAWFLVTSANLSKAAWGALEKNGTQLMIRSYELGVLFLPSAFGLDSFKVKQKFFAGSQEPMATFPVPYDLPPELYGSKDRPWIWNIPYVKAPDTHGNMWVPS

Row | SMILES | Effect on the cytotoxic effect of topotecan, HEK293A [1] | CC50 at 72 h [2] [µM] | IC50 [3, 8] [nM] | IC50 [3, 9] [nM] | CC50 at 72 h [4] [µM] | melting point [°C] | CC50 [5] [nM] | CC50 ([6]; Homo sapiens, HeLa, read-out: Tpc CC50 HeLa) [nM] | Effect on the cytotoxicity of topotecan, HeLa ([6]; 10 µM compound, result in words) | IC50 [7] [nM]
1 | CC(C)=CCC/C(C)=C/COc1cccc2oc(=O)c(-c3ccccc3[N+](=O)[O-])c(C)c12 [38a, (E)-5-(3,7-Dimethylocta-2,6-dienyloxy)-4-methyl-3-(2-nitrophenyl)-2H-chromen-2-one] | protect cells from the cytotoxic effects of topotecan | > 100 | 1030 ± 80 | 1030 ± 80 | > 100 | 73 | – | – | – | –
2 | COc1ccc(-c2c(C)c3c(OC/C=C(\C)CCC=C(C)C)cccc3oc2=O)cc1 [35a, (E)-5-(3,7-Dimethylocta-2,6-dienyloxy)-3-(4-methoxyphenyl)-4-methyl-2H-chromen-2-one] | – | > 100 | 6630 ± 1120 | 7000 ± 1000 | > 100 | 85 | – | – | – | –
3 | CC[C@@]1(O)C(=O)OCc2c1cc1n(c2=O)Cc2cc3c(CN(C)C)c(O)ccc3nc2-1 [Tpc, topotecan] | – | – | – | – | – | – | 40 ± 12 | 880 ± 240 | – | –
4 | CC(C)=CCC/C(C)=C/COc1cccc2oc(=O)c(-c3ccc(F)cc3)c(C)c12 [33a, (E)-5-(3,7-Dimethylocta-2,6-dienyloxy)-3-(4-fluorophenyl)-4-methyl-2H-chromen-2-one] | – | > 100 | 130 ± 30 | 130 ± 30 | > 100 | – | – | – | significantly increased cytotoxicity of topotecan | –
5 | COc1ccc(-c2c(C)c3c(OCCC(C)CCCC(C)C)cccc3oc2=O)cc1 (stereo not drawn) [35b, 5-(3,7-Dimethyloctyloxy)-3-(4-methoxyphenyl)-4-methyl-2H-chromen-2-one] | – | > 100 | 370 ± 160 | 400 ± 200 | 90.7 ± 0.5 | – | – | – | – | –
6 | COc1ccc(-c2c(C)c3c(OCC4=CC[C@H]5C[C@@H]4C5(C)C)cccc3oc2=O)cc1 [35c, 5-(((1R,5S)-6,6-Dimethylbicyclo[3.1.1]hept-2-en-2-yl)methoxy)-3-(4-methoxyphenyl)-4-methyl-2H-chromen-2-one] | – | > 100 | 1140 ± 150 | 1100 ± 200 | 73 ± 6 | – | – | – | – | –
7 | Cc1c(-c2ccc(Br)cc2)c(=O)oc2cccc(OCC3=CC[C@H]4C[C@@H]3C4(C)C)c12 [34c, 3-(4-Bromophenyl)-5-(((1R,5S)-6,6-dimethylbicyclo[3.1.1]hept-2-en-2-yl)methoxy)-4-methyl-2H-chromen-2-one] | protect cells from the cytotoxic effects of topotecan | > 100 | 900 ± 70 | 900 ± 70 | > 100 | 148 | – | – | – | –
8 | COc1ccccc1-c1c(C)c2c(OCC3=CC[C@H]4C[C@@H]3C4(C)C)cccc2oc1=O [37c, 5-(((1R,5S)-6,6-Dimethylbicyclo[3.1.1]hept-2-en-2-yl)methoxy)-3-(2-methoxyphenyl)-4-methyl-2H-chromen-2-one] | protect cells from the cytotoxic effects of topotecan | 52.3 ± 0.9 | 790 ± 60 | 790 ± 60 | 72 ± 2 | 164 | – | – | – | –
9 | Cc1c(-c2ccccc2Br)c(=O)oc2cccc(OCCC(C)CCCC(C)C)c12 (stereo not drawn) [36b, 3-(2-Bromophenyl)-5-(3,7-dimethyloctyloxy)-4-methyl-2H-chromen-2-one] | – | – | ≥ 50000 | – | – | 73 | – | – | – | –
10 | Cc1c(-c2ccc(F)cc2)c(=O)oc2cccc(OCC3=CC[C@H]4C[C@@H]3C4(C)C)c12 [33c, 5-(((1R,5S)-6,6-Dimethylbicyclo[3.1.1]hept-2-en-2-yl)methoxy)-3-(4-fluorophenyl)-4-methyl-2H-chromen-2-one] | – | > 100 | 5250 ± 40 | 5250 ± 40 | 89 ± 7 | 152 | – | – | – | –
11 | COc1ccccc1-c1c(C)c2c(OC/C=C(\C)CCC=C(C)C)cccc2oc1=O [37a, (E)-5-(3,7-Dimethylocta-2,6-dienyloxy)-3-(2-methoxyphenyl)-4-methyl-2H-chromen-2-one] | – | 16 ± 0.7 | 1220 ± 40 | 1220 ± 40 | 18 ± 10 | 99 | – | – | – | –
12 | COc1ccccc1-c1c(C)c2c(OCCC3=CC[C@H]4C[C@@H]3C4(C)C)cccc2oc1=O [37d, 5-(2-((1R,5S)-6,6-Dimethylbicyclo[3.1.1]hept-2-en-2-yl)ethoxy)-3-(2-methoxyphenyl)-4-methyl-2H-chromen-2-one] | – | 87 ± 7 | 3930 ± 770 | 3900 ± 800 | 48 ± 4 | 135 | – | – | – | –
13 | Cc1c(-c2ccc(F)cc2)c(=O)oc2cccc(OCCC(C)CCCC(C)C)c12 (stereo not drawn) [33b, 5-(3,7-Dimethyloctyloxy)-3-(4-fluorophenyl)-4-methyl-2H-chromen-2-one] | – | 40 ± 10 | 290 ± 70 | 290 ± 70 | > 100 | 114 | – | – | – | –
14 | Cc1c(-c2ccccc2[N+](=O)[O-])c(=O)oc2cccc(OCCC(C)CCCC(C)C)c12 (stereo not drawn) [38b, 5-(3,7-Dimethyloctyloxy)-4-methyl-3-(2-nitrophenyl)-2H-chromen-2-one] | – | – | 2180 ± 130 | – | – | 61 | – | – | – | –
15 | CC1(C)C2CC=C(COc3ccc4c5c(c(=O)oc4c3)CCC5)C1C2 (stereo not drawn) [compound 11] | – | – | – | – | – | – | – | – | – | 700
16 | Cc1c(-c2ccccc2Br)c(=O)oc2cccc(OCC3=CC[C@H]4C[C@@H]3C4(C)C)c12 [36c, 3-(2-Bromophenyl)-5-(((1R,5S)-6,6-dimethylbicyclo[3.1.1]hept-2-en-2-yl)methoxy)-4-methyl-2H-chromen-2-one] | – | > 100 | 4360 ± 1140 | 4360 ± 1140 | 73.5 ± 0.6 | 157 | – | – | – | –
17 | CC(C)=CCC/C(C)=C/COc1ccc2c(-c3ccc(F)cc3)cc(=O)oc2c1 [compound 12] | – | – | – | – | – | – | – | – | – | 600
18 | Cc1c(-c2ccccc2[N+](=O)[O-])c(=O)oc2cccc(OCC3=CC[C@H]4C[C@@H]3C4(C)C)c12 [38c, 5-(((1R,5S)-6,6-Dimethylbicyclo[3.1.1]hept-2-en-2-yl)methoxy)-4-methyl-3-(2-nitrophenyl)-2H-chromen-2-one] | – | 32 ± 13 | 3830 ± 290 | 3800 ± 300 | 83 ± 3 | – | – | – | – | –
19 | CC(C)=CCC/C(C)=C/COc1cccc2oc(=O)c(-c3ccc(Br)cc3)c(C)c12 [34a, (E)-3-(4-Bromophenyl)-5-(3,7-dimethylocta-2,6-dienyloxy)-4-methyl-2H-chromen-2-one] | – | 53 ± 1.2 | 1060 ± 60 | 1060 ± 60 | 32 ± 3 | 93 | – | – | – | –
20 | Cc1c(-c2ccc(Br)cc2)c(=O)oc2cccc(OCCC(C)CCCC(C)C)c12 (stereo not drawn) [34b, 3-(4-Bromophenyl)-5-(3,7-dimethyloctyloxy)-4-methyl-2H-chromen-2-one] | – | – | – | – | – | 137 | – | – | – | –
21 | CC(C)=CCC/C(C)=C/COc1cccc2oc(=O)c(-c3ccccc3Br)c(C)c12 [36a, (E)-3-(2-Bromophenyl)-5-(3,7-dimethylocta-2,6-dienyloxy)-4-methyl-2H-chromen-2-one] | – | 59 ± 6 | 850 ± 150 | 900 ± 200 | 49 ± 2 | – | – | – | – | –
22 | Cc1c(-c2ccc(F)cc2)c(=O)oc2cccc(OCCC3=CC[C@H]4C[C@@H]3C4(C)C)c12 [33d, 5-(2-((1R,5S)-6,6-Dimethylbicyclo[3.1.1]hept-2-en-2-yl)ethoxy)-3-(4-fluorophenyl)-4-methyl-2H-chromen-2-one] | – | – | 2510 ± 140 | – | – | 114 | – | – | – | –
23 | COc1ccccc1-c1c(C)c2c(OCCC(C)CCCC(C)C)cccc2oc1=O (stereo not drawn) [37b, 5-(3,7-Dimethyloctyloxy)-3-(2-methoxyphenyl)-4-methyl-2H-chromen-2-one] | – | – | 2600 ± 350 | – | – | 114 | – | – | – | –
